# Results from US6090987A, “Metal-ligand complex catalyzed processes” (Union Carbide Chemicals & Plastics Technology Corporation, priority 1998, dated 2000).
# Legend:
# [1] = Residual propylene hydroformylation activity after heat treatment, Ligand F catalyst (Table 1)
# Description: A catalyst solution (100 milliliters) was generated in a six ounce Fisher Porter Bottle by dissolving 0.063 grams of rhodium dicarbonyl 2,4-pentanedionate, 0.8 grams of Ligand F, 20 grams of n-butyraldehyde, and 78.7 grams of tetraethylene glycol dimethyl ether, subsequently alternately evacuating and flushing with nitrogen; and finally adding 60 psi of CO:H2, and placing the bottles in a 100° C. oil bath for 1 hour.
# (§1) After closing the reactor, the system was again purged with nitrogen and place in an oil bath heated to 100° C. The hydroformylation reaction in each experiment was conducted at a total gas pressure of 160 psig. The target partial pressure of hydrogen, carbon monoxide, and propylene being about 45 psia, 45 psia, and 5 psia respectively, with the remainder being nitrogen. The flows of the feed gases (carbon monoxide, hydrogen, propylene, and nitrogen) were controlled individually with mass flow meters. The feed gases were dispersed into the precursor solution via stainless steel 7-micron filters used as spargers. The unreacted portion of the feed gases stripped out the product aldehydes. Each experiment was operated for 24 hours under the above conditions. The activity is defined as the observed reaction rate divided by the predicted reaction rate. The reaction rates are expressed in terms of gram moles per liter per hour.
# The same procedure as in Example 2 was followed with the exception that a slow stream of 1,2-propadiene was purged through the initially generated catalyst solution for 5 minutes. Excess was then removed by alternately evacuating and flushing with nitrogen. The resulting solution was heated at 125° C. as in Example 2, and 20 milliliters of the resulting solution was transferred to a glass reactor as in Example 2 and the activity determined.
# (§2) The same procedure as in Example 3 was followed except 2 milliliters of 1,3-butadiene was added to the generated catalyst and stirred for 5 minutes. Excess 1,3-butadiene was then removed by alternate evacuation and flushing with nitrogen. The resulting solution was heated at 125° C. as in Example 2, and 20 milliliters of the resulting solution was transferred to a glass reactor as in Example 2 and the activity determined.
# The same procedure as in Example 4 was followed with the exception that 50 milliliters of a catalyst solution generated as in Example 2 was treated with 0.5 milliliters of 2-methyl-1,3-butadiene (isoprene) in place of 1,3-butadiene.
# A catalyst solution (20 milliliters) was generated in a Fisher Porter Bottle as in Example 2 under 60 psi CO:H2 for 1 hour, then cooled to room temperature and treated with 0.5 milliliters of 1,3-butadiene. The solution was removed from the Fisher Bottle by hypodermic syringe and transferred to a 100 milliliter stirred stainless vessel and maintained at 140° C. under 15 psi nitrogen for 14 hours. The resulting solution was then transferred to the glass reactors as in Example 2, and the residual catalyst activity measured. […]
# The same procedure as in Example 8 was followed except allene was employed in place of 1,3-butadiene, and the resulting solution heated at 140° C. for 48 hours without removing excess allene.
# A 20 milliliter sample of freshly generated catalyst solution (prepared as in Example 2) was charged to the glass reactors and the activity measured.
# The same procedure as in Example 8 was followed except 0.4 grams of 1,3-cyclohexadiene was employed in place of 1,3-butadiene.
# [2] = Residual propylene hydroformylation activity after heat treatment, Ligand D catalyst (Table 1); settings: fresh catalyst control, no heat treatment
# Description: as §1, with “About 20 milliliters of the solution was charged to a glass reactor via a syringe after purging the reactor with nitrogen (see Examples 14-20 below). After” for “After”
# as §2
# The same procedure as in Example 4 was followed except Ligand D (as identified herein) was employed in place of Ligand F. The results are given in Table 1.
# The same procedure as in Example 10 was followed except the fresh catalyst solution contained Ligand D in place of Ligand F. The results are given in Table 1.
# [3] = Propylene hydroformylation rate and colour of (TPP)3 Rh(CO)H catalyst after thermal treatment; settings: for hydroformylation rate: control without butadiene, 100° C.; for color change of catalyst solution: control
# Description: TPP is triphenylphosphine. 15 grams of this bright yellow solution was charged to a Fisher Porter bottle under inert gas. To this solution was added 20 psi of butadiene with stirring. The pressure dropped as the butadiene dissolved into the solution. The reactor was repressured twice with butadiene (20 psig) and then the reaction was place under a total of 45 psig with nitrogen. The solution was heated to 120° C. for 15 minutes. […] At ambient temperature, the reaction was placed under vacuum for 4 hours to remove any excess butadiene.
# Since the solvent has a very high boiling point, the concentration of rhodium was assumed to have remained unchanged while under vacuum. Indeed, no change in volume was detected visually while under vacuum. 15.0 milliliters of the 275 parts per million solution was charged to a 100 milliliter autoclave.
# This example is a control for Example 23. 15 grams of the catalyst solution prepared in Example 23 was charged to a Fisher Porter bottle under inert gas. 45 psig of nitrogen was added to the reaction vessel, then the reaction was heated to 120° C. for 15 minutes. […] 15.0 milliliters of the 275 parts per million solution was charged to a 100 milliliter autoclave.
# A catalyst solution was prepared by adding 113 milligrams of (TPP)3 Rh(CO)H to 40.4 grams Filmer IBT® available from Union Carbide Corporation, Danbury, Conn., resulting in a rhodium concentration of 312 parts per million. At this point, the rhodium complex was a suspended in the solvent. Approximately 20 grams of this solution of (TPP)3 Rh(CO)H in tetraglyme was charged to a Fisher Porter bottle under inert gas. To this solution was added 30 psi of butadiene with stirring. The pressure dropped to 20 psig as the butadiene dissolved into the solution. The reactor was repressured twice with butadiene (30 psig) and then the pressure was adjusted to 60 psig with nitrogen. The solution was placed into 140° C. oil bath, which caused the reaction to become homogeneous within a minute. The reaction was maintained at 140° C. for 50 minutes. […] The reaction vessel was removed from the oil bath and the butadiene was vented from the reactor while the reaction was hot. After gas evolution ceased, the reaction vessel was placed carefully placed under dynamic vacuum until gas evolution had ceased for 10 minutes. The reaction was then placed under a slight positive pressure of nitrogen. […] 15.0 milliliters of the 284 parts per million solution was charged to a 100 milliliter autoclave.
# This example serves as a control for Example 25. Approximately 20 grams of the solution prepared in Example 25 was charged to a Fisher Porter bottle under inert gas. 60 psig of nitrogen was added to the reaction vessel, then the reaction was heated to 140° C. for approximately 110 minutes. […] This solution was place into and out of the oil bath at the same time as the solution in Example 25. After thermal treatment, 10 weight percent of triphenylphosphine was added to the reaction mixture. […] 15 milliliters of the 284 parts per million solution was charged to a 100 milliliter autoclave.
# [4] = Decomposition of free Ligand F and deactivated complex formation at 145° C. by HPLC (FIG. 3); assay type: physicochemical; settings: nitrogen 80 psig, no diene
# Description: A catalyst solution (5 milliliters), 600 parts per million in rhodium and 0.8 weight percent in Ligand F generated as in Example 2 was charged to a 3 ounce Fisher Porter bottle and alternately flushed evacuated with nitrogen, then placed in a 145° C. oil bath under nitrogen (80 psig total pressure) and then monitored by HPLC at 1 and 3 hours for the Ligand F and deactivated complex concentrations. The free Ligand F concentration was 0.75, 0.57 and 0.37 weight percent at 0, 1 and 3 hours, respectively, while the deactivated complex concentration was 0.010, 0.57 and 0.89 weight percent at 0, 1 and 3 hours respectively.
# The same procedure as in Example 21 was followed except the catalyst solution was treated with 1 milliliter of 1,3-butadiene and then heated at 145° C. for 3 hours (45 psig total pressure). The free Ligand F concentration measured by HPLC (high pressure liquid chromatography) was 0.75, 0.66, and 0.62 weight percent at 0, 1 and 3 hours, respectively, while the deactivated complex concentration was 0.010, 0.012, and 0.05 weight percent at 0, 1 and 3 hours respectively.
# [5] = 140° C./24 hours, excess diene present
# [6] = 125° C./50 hours, no excess diene
# [7] = 125° C./24 hours, no excess diene
# [8] = 140° C./48 hours, excess diene present
smiles,measurement,setting,value
"C1=CCCC=C1 [1,3-cyclohexadiene]",% Activity,[1]; [5],4.13%
same,Final Rate,[1]; [5],0.09 gram moles per liter per hour
"C=CC(=C)C [Isoprene, 2-methyl-1,3-butadiene]",% Activity,[1]; [6],73.8%
same,Final Rate,[1]; [6],1.55 gram moles per liter per hour
"COc1cc(-c2cc(OC)cc(C(C)(C)C)c2Op2oc3ccccc3c3ccccc3o2)c(Op2oc3ccccc3c3ccccc3o2)c(C(C)(C)C)c1 [Ligand D, 6,6'-[[3,3'-bis(1,1-dimethylethyl)-5,5'-dimethoxy-[1,1' -biphenyl]-2,2'-diyl]bis(oxy)]bis-dibenzo[d,f][1,3,2]dioxaphosphepin]",Final Rate,[2],1.16 gram moles per liter per hour
"c1ccc(P(c2ccccc2)c2ccccc2)cc1 [triphenylphosphine, reference compound]",hydroformylation rate,"[3]; after 120° C. for 15 minutes under nitrogen, 275 ppm Rh, 115 psig",0.8 gmol/L-h
same,hydroformylation rate,"[3]; after 140° C. for approximately 110 minutes, 284 ppm Rh, 95 psig",0.3 gmol/L-h
same,color change of catalyst solution,[3]; 120° C. for 15 minutes under nitrogen,turn from bright yellow to dark brown
same,color change of catalyst solution,[3]; 140° C. for approximately 110 minutes under nitrogen,turn from bright yellow to dark brown
"C=C=C [Allene, 1,2-propadiene]",% Activity,[1]; [7],101%
same,Final Rate,[1]; [7],2.22 gram moles per liter per hour
same,% Activity,[1]; [8],47.2%
same,Final Rate,[1]; [8],1.03 gram moles per liter per hour
CC(C)(C)c1cc(-c2cc(C(C)(C)C)cc(C(C)(C)C)c2Op2oc3ccccc3c3ccccc3o2)c(Op2oc3ccccc3c3ccccc3o2)c(C(C)(C)C)c1 [Ligand F],% Activity,[1]; [7],10.0%
same,Final Rate,[1]; [7],0.22 gram moles per liter per hour
same,Final Rate,"[1]; fresh catalyst control, no heat treatment",2.18 gram moles per liter per hour
same,deactivated complex concentration,[4]; 0 hours,0.010 weight percent
same,free Ligand F concentration,[4]; 0 hours,0.75 weight percent
same,deactivated complex concentration,[4]; 1 hour,0.57 weight percent
same,free Ligand F concentration,[4]; 1 hour,0.57 weight percent
same,deactivated complex concentration,[4]; 3 hours,0.89 weight percent
same,free Ligand F concentration,[4]; 3 hours,0.37 weight percent
